Like-named read-outs stand apart in the source and are kept apart here.
Tests used:
[1] = target: T1, N-terminally FLAG-tagged PARP2 (amino acids 1-583) (Homo sapiens, UniProt Q9UGN5); experiment: PARP2 probe displacement HTRF assay; assay type: binding; details: binned Kd
T1 construct: N-terminally FLAG-tagged PARP2 (amino acids 1-583)
Experimental: Data analysis was performed identical as for PARP1.

[2] = target: T2, full length N-terminally FLAG-tagged PARP1 (Homo sapiens, UniProt P09874); experiment: PARP1 probe displacement HTRF assay; details: for Selectivity: PARP1 over PARP2, ratio Kd (PARP2)/Kd (PARP1); for Kd: binned Kd
T2 sequence (P09874 whole entry): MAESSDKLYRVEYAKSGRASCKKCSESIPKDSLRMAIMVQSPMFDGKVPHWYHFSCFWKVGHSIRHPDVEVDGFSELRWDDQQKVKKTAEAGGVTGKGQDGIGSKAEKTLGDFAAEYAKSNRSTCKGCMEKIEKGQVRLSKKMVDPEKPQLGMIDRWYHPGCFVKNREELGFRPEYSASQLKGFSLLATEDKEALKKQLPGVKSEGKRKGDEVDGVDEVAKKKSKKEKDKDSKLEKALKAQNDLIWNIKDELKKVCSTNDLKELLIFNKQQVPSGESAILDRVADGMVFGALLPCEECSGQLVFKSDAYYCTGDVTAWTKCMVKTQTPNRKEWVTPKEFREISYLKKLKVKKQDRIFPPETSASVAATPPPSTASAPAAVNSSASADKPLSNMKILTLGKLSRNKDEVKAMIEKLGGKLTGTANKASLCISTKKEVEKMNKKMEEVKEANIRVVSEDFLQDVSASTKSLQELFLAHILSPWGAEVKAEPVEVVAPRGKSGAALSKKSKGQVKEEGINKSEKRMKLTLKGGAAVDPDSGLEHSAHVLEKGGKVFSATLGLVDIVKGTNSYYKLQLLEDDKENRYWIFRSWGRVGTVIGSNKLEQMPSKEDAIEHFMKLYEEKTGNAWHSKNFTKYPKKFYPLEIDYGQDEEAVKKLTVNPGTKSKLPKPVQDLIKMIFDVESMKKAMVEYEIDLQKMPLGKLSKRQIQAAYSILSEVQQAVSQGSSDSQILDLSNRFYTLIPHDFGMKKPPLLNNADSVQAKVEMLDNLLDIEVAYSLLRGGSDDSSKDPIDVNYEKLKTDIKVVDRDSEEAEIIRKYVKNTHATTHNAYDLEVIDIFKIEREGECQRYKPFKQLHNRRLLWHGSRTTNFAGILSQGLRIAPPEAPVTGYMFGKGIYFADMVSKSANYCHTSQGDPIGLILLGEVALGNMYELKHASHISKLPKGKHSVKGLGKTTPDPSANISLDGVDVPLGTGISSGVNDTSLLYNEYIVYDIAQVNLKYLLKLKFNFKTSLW

[3] = target: T2, full length N-terminally FLAG-tagged PARP1; experiment: PARP1 biochemical DELFIA assay (auto-PARylation); set-up: recombinant full length human N-terminally FLAG-tagged PARP1
[4] = read-out: PARP1 HTRF, probe displacement HTRF
[5] = binned IC50, biochemical auto-PARylation assay
[6] = read-out: PARP1 HTRF, PARP1 probe displacement HTRF
[7] = binned IC50, PARP1 biochemical DELFIA assay

T1 sequence (Q9UGN5 whole entry, the tested form may be a part): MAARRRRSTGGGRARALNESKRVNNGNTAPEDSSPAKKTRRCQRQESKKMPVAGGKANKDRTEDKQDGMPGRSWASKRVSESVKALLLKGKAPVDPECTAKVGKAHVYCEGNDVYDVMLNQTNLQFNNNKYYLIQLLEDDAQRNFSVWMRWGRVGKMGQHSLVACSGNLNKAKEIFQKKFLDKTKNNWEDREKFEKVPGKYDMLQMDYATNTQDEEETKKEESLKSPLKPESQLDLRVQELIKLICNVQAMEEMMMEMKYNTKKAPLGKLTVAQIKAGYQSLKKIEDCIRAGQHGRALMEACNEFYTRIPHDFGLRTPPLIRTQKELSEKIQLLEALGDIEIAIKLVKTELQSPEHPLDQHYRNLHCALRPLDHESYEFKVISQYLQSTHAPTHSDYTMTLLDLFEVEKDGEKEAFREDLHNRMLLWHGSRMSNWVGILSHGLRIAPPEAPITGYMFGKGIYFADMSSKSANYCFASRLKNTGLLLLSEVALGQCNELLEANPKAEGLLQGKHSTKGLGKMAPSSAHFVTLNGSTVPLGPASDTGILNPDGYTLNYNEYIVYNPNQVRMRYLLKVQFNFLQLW

Compound | Kd ([1]; probe displacement HTRF) | Selectivity ([2]; probe displacement HTRF) | Kd [2, 4] | IC50 [3, 5] | Kd ([1]; PARP2 probe displacement HTRF) | Kd [2, 6] | IC50 [3, 7] | Kd ([2]; PARP1 HTRF, PARP1 probe displacement HTRF)
CCc1ccc(C2CCN(C3CCN(c4ccc(C(=O)NC)cc4)CC3)C2)[nH]c1=O (single isomer, unassigned) [Compound 355b] | 100 to 1000 nM | +++ (+++ indicate a value of at least 100) | < 10 nM | < 10 nM | – | – | – | –
O=C(NCC(F)F)c1ccc(N2CCC(N3CCC(c4cc5cccc(F)c5c(=O)[nH]4)C3)CC2)c(F)n1 (single isomer, unassigned) [Compound 390a] | 100 to 1000 nM | +++ (+++ indicate a value of at least 100) | < 10 nM | < 10 nM | – | – | – | –
N#Cc1ccc(N2CCC(N3CCCC(c4nc5ccccc5c(=O)[nH]4)C3)CC2)nc1 (single isomer, unassigned) [Compound 74a] | – | + (+ indicates a value of 10 to less than 50) | – | – | 1000 to 10000 nM | 100 to 1000 nM | 100 to 1000 nM | –
N#Cc1ccc(N2CCC(N3CCC(c4cc5cccc(F)c5c(=O)[nH]4)C3)CC2)nc1 (single isomer, unassigned) [Compound 340a] | 100 to 1000 nM | +++ (+++ indicate a value of at least 100) | < 10 nM | < 10 nM | – | – | – | –
CS(=O)(=O)Nc1ccc(N2CCC(N3CCC(c4nc5ccccc5c(=O)[nH]4)C3)CC2)cc1 (single isomer, unassigned) [Compound 250b] | 100 to 1000 nM | + (+ indicates a value of 10 to less than 50) | 10 to 100 nM | 10 to 100 nM | – | – | – | –
CNC(=O)c1ccc(N2CC(N3CCCC(Cc4nc5ccccc5c(=O)[nH]4)C3)C2)cn1 (single isomer, unassigned) [Compound 51b] | – | − (− indicates a value of less than 10) | – | – | 1000 to 10000 nM | 1000 to 10000 nM | 1000 to 10000 nM | –
CS(=O)(=O)Nc1ccc(N2CCC(N3CCC(c4nc5ccccc5c(=O)[nH]4)C3)CC2)cn1 (single isomer, unassigned) [Compound 291a] | 1000 to 10000 nM | + (+ indicates a value of 10 to less than 50) | 100 to 1000 nM | 10 to 100 nM | – | – | – | –
CCNC(=O)c1ccc(N2CCC(N3CCC(c4ccc(CC)c(=O)[nH]4)C3)CC2)cn1 (racemic) [Compound 171rac] | – | +++ (+++ indicate a value of at least 100) | – | – | 100 to 1000 nM | < 10 nM | < 10 nM | –
CCc1ccc(C2CCN(C3CCN(c4ccc(C(=O)NCCOC)nc4)CC3)C2)[nH]c1=O (racemic) [Compound 160rac] | – | +++ (+++ indicate a value of at least 100) | – | – | 1000 to 10000 nM | < 10 nM | < 10 nM | –
CNC(=O)c1ccc(N2CCC(N3CCC(F)(c4nc5ccccc5c(=O)[nH]4)C3)CC2)cn1 (single isomer, unassigned) [Compound 328a] | > 10000 nM | + (+ indicates a value of 10 to less than 50) | 100 to 1000 nM | 100 to 1000 nM | – | – | – | –
CCc1ccc(C2(F)CCN(C3CCN(c4ccc(C(=O)NC)nc4F)CC3)C2)[nH]c1=O (racemic) [Compound 415rac] | > 10000 nM | +++ (+++ indicate a value of at least 100) | < 10 nM | 10 to 100 nM | – | – | – | –
CNC(=O)c1ccc(N2CCC(N3CCC(c4cnc(C(F)(F)F)c(=O)[nH]4)C3)CC2)cn1 (single isomer, unassigned) [Compound 279a] | > 10000 nM | + (+ indicates a value of 10 to less than 50) | 100 to 1000 nM | 100 to 1000 nM | – | – | – | –
CNC(=O)c1ccc(N2CCC(N3CCC(c4nc5cccc(F)c5c(=O)[nH]4)C3)CC2)cn1 (single isomer, unassigned) [Compound 101a] | – | + (+ indicates a value of 10 to less than 50) | – | – | 100 to 1000 nM | 10 to 100 nM | 10 to 100 nM | –
CNC(=O)c1cc(Cl)c(N2CCC(N3CCC(c4cc5ccc(F)cc5c(=O)[nH]4)C3)CC2)cn1 (single isomer, unassigned) [Compound 236b] | 10 to 100 nM | + (+ indicates a value of 10 to less than 50) | < 10 nM | < 10 nM | – | – | – | –
O=c1[nH]c(C2CCN(C3CCC(F)(F)CC3)C2)nc2ccccc12 (single isomer, unassigned) [Compound 4a] | – | − (− indicates a value of less than 10) | – | – | 100 to 1000 nM | 100 to 1000 nM | 100 to 1000 nM | –
CCc1ccc(C2CCN(C3CCN(c4cnc(C(=O)NC)nc4C)CC3)C2)[nH]c1=O (single isomer, unassigned) [Compound 246a] | > 10000 nM | + (+ indicates a value of 10 to less than 50) | 100 to 1000 nM | 100 to 1000 nM | – | – | – | –
O=C(NCC(F)F)c1ccc(N2CCC(N3CCC(c4cc5ccc(F)cc5c(=O)[nH]4)C3)CC2)c(F)n1 (single isomer, unassigned) [Compound 399a] | 100 to 1000 nM | +++ (+++ indicate a value of at least 100) | < 10 nM | < 10 nM | – | – | – | –
CNC(=O)c1ccc(N2CCC(N3CCC(c4nc5cccc(C(F)(F)F)c5c(=O)[nH]4)C3)CC2)cn1 (single isomer, unassigned) [Compound 86a] | – | + (+ indicates a value of 10 to less than 50) | – | – | 100 to 1000 nM | 10 to 100 nM | 10 to 100 nM | –
CNC(=O)c1ccc(N2CCC(N3CCC(c4cc5ccccc5c(=O)[nH]4)C3)CC2)cn1 (single isomer, unassigned) [Compound 91a] | – | +++ (+++ indicate a value of at least 100) | – | – | 100 to 1000 nM | < 10 nM | < 10 nM | –
N#Cc1ccc(N2CCC(N3CCC(c4nc5ccccc5c(=O)[nH]4)C3)CC2)nc1 (single isomer, unassigned) [Compound 55b] | – | − (− indicates a value of less than 10) | – | – | 100 to 1000 nM | 10 to 100 nM | 10 to 100 nM | –
CNC(=O)c1ccc(N2CCC(N3CCC(c4nc5ncccc5c(=O)[nH]4)C3)CC2)cn1 (single isomer, unassigned) [Compound 60a] | – | +++ (+++ indicate a value of at least 100) | – | – | > 10000 nM | < 10 nM | < 10 nM | –
CNC(=O)c1ccc(N2CCC(N3CCC(c4[nH]c(=O)c5ccccc5c4C(F)(F)F)C3)CC2)cn1 (single isomer, unassigned) [Compound 404a] | 1000 to 10000 nM | +++ (+++ indicate a value of at least 100) | 10 to 100 nM | 10 to 100 nM | – | – | – | –
CNC(=O)c1ccc(N2CCC(N3CCC(c4ccc(CC5CC5)c(=O)[nH]4)C3)CC2)c(F)n1 (single isomer, unassigned) [Compound 313a] | > 10000 nM | +++ (+++ indicate a value of at least 100) | 10 to 100 nM | 10 to 100 nM | – | – | – | –
CNC(=O)c1ccc(N2CCC(N3CCC(c4nc5ccccc5c(=O)[nH]4)C3)CC2)cn1 (single isomer, unassigned) [Compound 10a, N-methyl-5-(4-(3-(4-oxo-3,4-dihydroquinazolin-2-yl)pyrrolidin-1-yl)piperidin-1-yl)picolinamide] | – | +++ (+++ indicate a value of at least 100) | – | – | 100 to 1000 nM | – | 10 to 100 nM | < 10 nM
CNC(=O)c1ccc(N2CCC(N3CC4(c5nc6ccccc6c(=O)[nH]5)CCC3C4)CC2)cn1 (single isomer, unassigned) [Compound 245a] | 100 to 1000 nM | +++ (+++ indicate a value of at least 100) | < 10 nM | < 10 nM | – | – | – | –
N#Cc1ccc(N2CCC(N3CCC(c4cc5ccc(F)cc5c(=O)[nH]4)C3)CC2)c(F)c1 (single isomer, unassigned) [Compound 385b] | 10 to 100 nM | +++ (+++ indicate a value of at least 100) | < 10 nM | < 10 nM | – | – | – | –
CNC(=O)c1ccc(N2CCC(N3CCC(c4[nH]c(=O)c5cc(F)ccc5c4F)C3)CC2)cn1 (single isomer, unassigned) [Compound 401a] | 10 to 100 nM | +++ (+++ indicate a value of at least 100) | < 10 nM | < 10 nM | – | – | – | –
